Some targets named below: FLT1 (human) (UniProt P17948); CDK8 (human) (UniProt P49336); MYO3A (human) (UniProt Q8NEV4); MAP2K6 (human) (UniProt P52564); EPHA3 (human) (UniProt P29320); KDR (human) (UniProt P35968); TNK2 (human) (UniProt Q07912); MAPK10 (human) (UniProt P53779); CAMK2B (human) (UniProt Q13554); CAMK1 (human) (UniProt Q14012); BMPR1A (human) (UniProt P36894); TGFBR1 (human) (UniProt P36897); MAPK3 (human) (UniProt P27361); MAPK6 (human) (UniProt Q16659); BTK (human) (UniProt Q06187); PRKAA2 (human) (UniProt P54646); FRK (human) (UniProt P42685); SYK (human) (UniProt P43405); ERBB4 (human) (UniProt Q15303); MAP3K3 (human) (UniProt Q99759); CSNK1A1L (human) (UniProt Q8N752); MAPK1 (human) (UniProt P28482); SIK1 (human) (UniProt P57059); CDK5 (human) (UniProt Q00535); MAPK4 (human) (UniProt P31152); CDK15 (human) (UniProt Q96Q40); MAPK7 (human) (UniProt Q13164); RET (human) (UniProt P07949); LATS1 (human) (UniProt O95835); STK36 (human) (UniProt Q9NRP7); ERBB2 (human) (UniProt P04626); CSF1R (human) (UniProt P07333); IGF1R (human) (UniProt P08069); NUAK1 (human) (UniProt O60285); MAP3K4 (human) (UniProt Q9Y6R4); SRC (human) (UniProt P12931).

Holding throughout (experiment): KINOMEscan competition binding
Common to all, as to conditions: compound 10.0 µM

The test system of assay [1] is EGFR (human), P00533 [P753S; 747-752 del].
In assay [2] the test system is RET (human), P07949 [V804L].
Assay [3] addresses TYK2 JH1 catalytic (human) (UniProt P29597).
Assay [4] deals with ABL1 (human), P00519 [E255K].
For assay [5], the system named is ABL1 (human), P00519 [Q252H].
In assay [6] the test system is ABL1 (human), P00519 [T315I].

Sequence of TYK2 JH1 catalytic (human) (P29597 whole entry, looked up): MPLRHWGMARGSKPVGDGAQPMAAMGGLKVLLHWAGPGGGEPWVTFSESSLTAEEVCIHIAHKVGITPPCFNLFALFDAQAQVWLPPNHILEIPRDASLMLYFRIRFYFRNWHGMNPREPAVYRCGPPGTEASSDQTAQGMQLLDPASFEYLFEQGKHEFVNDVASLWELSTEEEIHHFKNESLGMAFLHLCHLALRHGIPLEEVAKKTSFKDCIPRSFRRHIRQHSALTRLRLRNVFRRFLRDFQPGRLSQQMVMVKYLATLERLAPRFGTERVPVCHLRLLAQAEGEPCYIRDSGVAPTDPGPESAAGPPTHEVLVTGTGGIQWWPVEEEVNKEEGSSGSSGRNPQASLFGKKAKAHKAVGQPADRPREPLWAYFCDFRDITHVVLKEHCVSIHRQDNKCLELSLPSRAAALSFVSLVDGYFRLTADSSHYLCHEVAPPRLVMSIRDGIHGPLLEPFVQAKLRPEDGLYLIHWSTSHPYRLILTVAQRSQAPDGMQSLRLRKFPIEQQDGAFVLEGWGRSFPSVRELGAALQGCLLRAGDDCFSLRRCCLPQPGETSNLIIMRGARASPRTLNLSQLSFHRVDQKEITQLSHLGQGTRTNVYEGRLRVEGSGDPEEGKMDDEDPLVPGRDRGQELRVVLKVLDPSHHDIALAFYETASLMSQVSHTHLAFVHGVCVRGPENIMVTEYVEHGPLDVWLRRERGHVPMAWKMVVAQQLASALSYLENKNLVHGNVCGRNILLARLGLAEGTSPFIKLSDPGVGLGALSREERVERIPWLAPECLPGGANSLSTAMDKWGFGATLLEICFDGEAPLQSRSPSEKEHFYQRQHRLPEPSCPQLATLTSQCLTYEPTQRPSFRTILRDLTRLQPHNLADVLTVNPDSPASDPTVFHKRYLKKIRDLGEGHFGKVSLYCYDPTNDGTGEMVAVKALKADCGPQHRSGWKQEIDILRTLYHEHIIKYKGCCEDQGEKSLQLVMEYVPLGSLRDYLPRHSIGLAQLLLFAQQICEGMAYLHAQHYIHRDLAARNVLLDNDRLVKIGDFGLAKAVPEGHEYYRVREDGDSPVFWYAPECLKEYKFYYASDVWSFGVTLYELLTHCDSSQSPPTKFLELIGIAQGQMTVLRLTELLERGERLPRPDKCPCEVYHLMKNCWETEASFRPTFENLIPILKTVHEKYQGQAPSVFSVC
Sequence of TGFBR1 (human) (P36897 whole entry, looked up): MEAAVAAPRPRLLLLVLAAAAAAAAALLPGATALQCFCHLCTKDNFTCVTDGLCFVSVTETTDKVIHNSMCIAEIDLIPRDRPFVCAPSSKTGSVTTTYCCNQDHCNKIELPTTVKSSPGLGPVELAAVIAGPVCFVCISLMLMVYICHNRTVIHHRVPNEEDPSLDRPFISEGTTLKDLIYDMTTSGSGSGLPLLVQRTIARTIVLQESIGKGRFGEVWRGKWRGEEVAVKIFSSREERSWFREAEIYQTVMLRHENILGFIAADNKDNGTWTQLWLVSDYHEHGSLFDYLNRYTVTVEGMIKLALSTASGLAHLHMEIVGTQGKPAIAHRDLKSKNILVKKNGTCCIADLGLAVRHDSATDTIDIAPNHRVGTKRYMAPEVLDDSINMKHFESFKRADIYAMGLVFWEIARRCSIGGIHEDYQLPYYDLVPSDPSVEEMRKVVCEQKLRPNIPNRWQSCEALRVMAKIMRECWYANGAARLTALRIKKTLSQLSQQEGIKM
Sequence of MAPK10 (human) (P53779 whole entry, looked up): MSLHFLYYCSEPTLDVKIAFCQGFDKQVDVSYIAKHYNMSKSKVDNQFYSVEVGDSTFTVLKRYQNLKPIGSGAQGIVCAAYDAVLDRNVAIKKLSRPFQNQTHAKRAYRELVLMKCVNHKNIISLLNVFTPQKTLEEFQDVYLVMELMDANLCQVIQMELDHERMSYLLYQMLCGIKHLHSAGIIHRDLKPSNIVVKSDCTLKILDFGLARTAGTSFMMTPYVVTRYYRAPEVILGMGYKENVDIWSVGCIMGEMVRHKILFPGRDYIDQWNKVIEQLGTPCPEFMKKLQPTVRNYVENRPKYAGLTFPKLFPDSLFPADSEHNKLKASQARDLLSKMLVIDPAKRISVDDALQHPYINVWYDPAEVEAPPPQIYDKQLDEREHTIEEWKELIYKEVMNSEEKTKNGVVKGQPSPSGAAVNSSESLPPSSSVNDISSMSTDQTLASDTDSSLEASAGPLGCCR
Sequence of CAMK2B (human) (Q13554 whole entry, looked up): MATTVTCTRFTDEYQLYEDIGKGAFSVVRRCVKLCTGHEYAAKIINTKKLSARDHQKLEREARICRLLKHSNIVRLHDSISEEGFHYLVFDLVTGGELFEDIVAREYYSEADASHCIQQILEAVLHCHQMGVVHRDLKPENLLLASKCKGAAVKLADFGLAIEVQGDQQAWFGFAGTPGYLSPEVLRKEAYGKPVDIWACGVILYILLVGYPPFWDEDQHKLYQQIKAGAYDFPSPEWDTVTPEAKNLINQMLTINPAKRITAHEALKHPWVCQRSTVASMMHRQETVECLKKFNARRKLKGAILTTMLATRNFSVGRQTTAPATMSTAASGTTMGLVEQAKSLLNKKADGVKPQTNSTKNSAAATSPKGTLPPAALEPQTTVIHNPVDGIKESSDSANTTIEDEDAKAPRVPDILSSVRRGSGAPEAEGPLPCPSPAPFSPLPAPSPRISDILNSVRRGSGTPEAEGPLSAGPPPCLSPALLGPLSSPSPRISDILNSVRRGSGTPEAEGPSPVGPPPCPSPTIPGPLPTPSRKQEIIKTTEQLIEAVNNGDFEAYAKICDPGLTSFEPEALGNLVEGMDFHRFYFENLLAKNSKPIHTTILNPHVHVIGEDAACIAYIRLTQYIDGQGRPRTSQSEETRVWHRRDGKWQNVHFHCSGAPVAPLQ
Sequence of CDK5 (human) (Q00535 whole entry, looked up): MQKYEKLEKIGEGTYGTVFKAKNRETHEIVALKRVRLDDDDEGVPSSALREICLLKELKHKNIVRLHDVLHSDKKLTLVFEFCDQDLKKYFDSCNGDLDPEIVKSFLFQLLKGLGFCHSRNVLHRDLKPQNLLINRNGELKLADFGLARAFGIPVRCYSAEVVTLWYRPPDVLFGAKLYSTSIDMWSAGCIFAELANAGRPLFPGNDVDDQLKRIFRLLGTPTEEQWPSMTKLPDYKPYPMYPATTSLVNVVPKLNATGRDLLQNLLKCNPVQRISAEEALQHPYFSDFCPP
Sequence of CDK8 (human) (P49336 whole entry, looked up): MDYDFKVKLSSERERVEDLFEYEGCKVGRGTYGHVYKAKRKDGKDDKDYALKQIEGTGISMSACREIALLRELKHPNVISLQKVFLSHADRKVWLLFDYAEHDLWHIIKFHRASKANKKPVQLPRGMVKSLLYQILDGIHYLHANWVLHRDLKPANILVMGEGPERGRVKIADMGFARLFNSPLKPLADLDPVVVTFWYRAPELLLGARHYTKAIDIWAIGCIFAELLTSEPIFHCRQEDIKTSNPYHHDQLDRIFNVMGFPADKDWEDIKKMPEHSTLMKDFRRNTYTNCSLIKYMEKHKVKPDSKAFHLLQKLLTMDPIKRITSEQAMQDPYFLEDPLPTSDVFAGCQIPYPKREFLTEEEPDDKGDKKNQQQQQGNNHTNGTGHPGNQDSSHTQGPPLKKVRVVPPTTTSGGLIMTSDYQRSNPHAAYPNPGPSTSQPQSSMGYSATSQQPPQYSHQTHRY
Sequence of BMPR1A (human) (P36894 whole entry, looked up): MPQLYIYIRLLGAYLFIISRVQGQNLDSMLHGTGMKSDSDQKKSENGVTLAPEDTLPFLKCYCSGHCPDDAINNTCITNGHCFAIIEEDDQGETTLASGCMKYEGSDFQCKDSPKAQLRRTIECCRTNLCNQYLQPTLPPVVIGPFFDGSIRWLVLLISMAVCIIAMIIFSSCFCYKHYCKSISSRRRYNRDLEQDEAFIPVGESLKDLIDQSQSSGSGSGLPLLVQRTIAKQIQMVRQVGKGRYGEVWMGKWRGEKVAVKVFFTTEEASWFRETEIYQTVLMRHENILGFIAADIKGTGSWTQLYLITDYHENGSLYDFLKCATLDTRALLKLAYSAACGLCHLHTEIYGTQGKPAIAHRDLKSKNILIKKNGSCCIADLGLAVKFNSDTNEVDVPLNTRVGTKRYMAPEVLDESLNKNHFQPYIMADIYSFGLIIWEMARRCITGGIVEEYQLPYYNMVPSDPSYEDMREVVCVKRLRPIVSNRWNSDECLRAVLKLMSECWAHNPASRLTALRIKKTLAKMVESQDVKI
Sequence of CAMK1 (human) (Q14012 whole entry, looked up): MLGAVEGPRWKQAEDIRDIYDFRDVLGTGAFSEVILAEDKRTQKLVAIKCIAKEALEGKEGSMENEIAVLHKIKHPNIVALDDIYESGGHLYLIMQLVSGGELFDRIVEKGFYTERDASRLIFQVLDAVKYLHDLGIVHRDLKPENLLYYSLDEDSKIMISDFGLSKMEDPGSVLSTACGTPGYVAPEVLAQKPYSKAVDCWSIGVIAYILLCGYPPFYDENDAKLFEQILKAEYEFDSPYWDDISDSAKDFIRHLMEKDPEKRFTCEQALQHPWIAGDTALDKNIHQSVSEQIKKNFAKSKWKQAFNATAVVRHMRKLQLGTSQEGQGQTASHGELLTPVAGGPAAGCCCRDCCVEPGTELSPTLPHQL
Sequence of CDK15 (human) (Q96Q40 whole entry, looked up): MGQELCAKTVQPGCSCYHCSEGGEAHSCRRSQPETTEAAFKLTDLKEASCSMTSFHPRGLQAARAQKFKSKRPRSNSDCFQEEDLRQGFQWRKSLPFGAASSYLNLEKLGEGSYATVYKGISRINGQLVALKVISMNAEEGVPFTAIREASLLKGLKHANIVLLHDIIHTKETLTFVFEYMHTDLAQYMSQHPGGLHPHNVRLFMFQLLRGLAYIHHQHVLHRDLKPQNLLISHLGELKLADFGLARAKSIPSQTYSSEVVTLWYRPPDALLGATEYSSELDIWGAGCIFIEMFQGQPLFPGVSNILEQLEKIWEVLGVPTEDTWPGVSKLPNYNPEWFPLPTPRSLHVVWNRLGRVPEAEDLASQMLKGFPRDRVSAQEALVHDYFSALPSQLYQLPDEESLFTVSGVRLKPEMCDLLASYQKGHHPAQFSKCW

As to `O=C1NC(=S)S/C1=C\c1ccc(-c2cncc3ccccc23)o1`, the kinase still bound, per cent of control is 28% at FLT1 (human); 10% at CDK8 (human); 19% on MYO3A (human); 24% on MAP2K6 (human); 17% on EPHA3 (human); 21% on KDR (human). Also, the kinase still bound, per cent of control on TNK2 (human) stood at 34%; on MAPK10 (human) it was 12%; on CAMK2B (human) it was 22%; on CAMK1 (human) it was 27%.
Take `CS(=O)(=O)Nc1ccc(-c2cc(/C=C3\SC(=N)NC3=O)c[nH]c2=O)cc1`: the kinase still bound, per cent of control stood at 8% on BMPR1A (human) and 24% at TGFBR1 (human).
For `CN1CCN(c2ccc(C(=O)Nc3ncc4c(n3)N(C)c3ccccc3C(=O)N4C)cc2)CC1`, the kinase still bound, per cent of control came out at 100% at FLT1 (human); 100% at CDK8 (human); 100% on BMPR1A (human); 100% at MAPK3 (human); 70% on MAPK6 (human); 100% in assay [1]. The kinase still bound, per cent of control on MYO3A (human), on MAP2K6 (human), on BTK (human), on PRKAA2 (human), at EPHA3 (human) and on FRK (human) was 100% throughout. The kinase still bound, per cent of control was 100% at SYK (human); 100% at ERBB4 (human); 100% at MAP3K3 (human); 77% on CSNK1A1L (human); 100% in assay [2]; 86% at KDR (human). Besides, the kinase still bound, per cent of control at MAPK1 (human) amounted to 100%; at SIK1 (human), 100%; at CDK5 (human), 100%; at TGFBR1 (human), 100%; on TNK2 (human), 92%; on MAPK4 (human) it was 100%. Also, the kinase still bound, per cent of control at CDK15 (human) amounted to 88%; in assay [3], 44%; in assay [4], 100%; on MAPK7 (human), 65%; at RET (human) it was 100%; at LATS1 (human), 88%. The kinase still bound, per cent of control at STK36 (human) came to 100%; on ERBB2 (human) it was 88%; at CSF1R (human), 71%; on MAPK10 (human) it was 93%; on IGF1R (human), 100%; in [5], 100%. The kinase still bound, per cent of control was 90% at NUAK1 (human); 85% in assay [6]; 98% on CAMK2B (human); 100% at CAMK1 (human); 100% on MAP3K4 (human); 100% at SRC (human).
`CS(=O)(=O)Nc1ccc(-c2ncc(/C=C3\SC(=N)NC3=O)s2)cc1`: the kinase still bound, per cent of control on RET (human) worked out at 20%; at STK36 (human), 20%; in assay [5] it was 28%; in assay [6], 4.6%.
With `N=C1NC(=O)/C(=C/c2ccc(-c3ccc(C(N)=O)cc3O)o2)S1`, the kinase still bound, per cent of control at CDK5 (human) was found to be 27%; on CDK15 (human), 13%.
For the molecule `Nc1cccc(-c2cc(/C=C3\SC(=O)NC3=O)c[nH]c2=O)c1`, the results for the kinase still bound, per cent of control in assay [1] and in assay [3] were 16% and 14%, respectively.
For the molecule `N=C1NC(=O)/C(=C/c2ccc(-c3ccc(F)cc3O)o2)S1`, the values for the kinase still bound, per cent of control on CDK5 (human) and at CDK15 (human) were 12% and 9.4%, respectively.
As to `CS(=O)(=O)Nc1ccc(-c2cncc(/C=C3\SC(=N)NC3=O)c2)cc1`, the kinase still bound, per cent of control came to 0.95% at BMPR1A (human), 21% at CSNK1A1L (human) and 16% at TGFBR1 (human).
`N=C1NC(=O)/C(=C/c2ccc(-c3cncc4ccccc34)o2)S1`: the kinase still bound, per cent of control at CDK8 (human) amounted to 11%; on BMPR1A (human), 33%; at MYO3A (human), 24%; at BTK (human), 31%; on PRKAA2 (human) it was 33%; at EPHA3 (human), 13%. Also, the kinase still bound, per cent of control in assay [2] was 23%; on TGFBR1 (human), 34%; at MAPK10 (human) it was 3%; at CAMK2B (human), 17%; at CAMK1 (human) it was 8.4%.
As to `CN1C(=O)[C@H]2CCC[C@H]2N(C2CCCC2)c2nc(Nc3ccc(C(N)=O)cc3)ncc21`, the figures for the kinase still bound, per cent of control (in [3]; on MAPK7 (human)) were 19% and 0.1%, respectively.
`N=C1NC(=O)/C(=C/c2ccc(-c3ccccc3O)o2)S1` had a kinase still bound, per cent of control on CDK15 (human) of 34%.
Regarding `N=C1NC(=O)/C(=C/c2ccc(-c3csc4ccccc34)o2)S1`, the kinase still bound, per cent of control on MAPK1 (human) came out at 29%; at NUAK1 (human), 31%.

The record behind these values is the kinase profiling compilation of Christmann-Franck et al. (2016).
